Reference: patent publication US11957143B2, “Highly-soluble rebaudioside D” (SUNTORY HOLDINGS LIMITED, priority 2018, dated 2024)

What was measured:
Format in all cases: physicochemical
[1] = Moisture content of crystalline forms (FIG. 10); details: sample heating 130° C. in N2, trace moisture analyzer
Protocol: The “moisture content” herein means the proportion of water contained in the crystal and is the proportion (wt %) of the weight of water based on the weight of the entire crystal. The moisture content of the crystal can be determined, for example, by heating the crystal at a high temperature (for example, 130° C.) under an inert atmosphere, and calculating from the change in weight between before and after the heating. The crystal of Reb. D of the present invention preferably has a moisture content of 0.1 wt % to 2.0 wt %, more preferably 0.2 wt % to 1.2 wt %, further preferably 0.40 wt % to 0.8 wt %.
The crystals of Reb. D in the crystalline form α and the crystalline form β and the control (in a stable form) were provided, and their moisture contents were compared. […] The devices and the conditions used for measuring the moisture contents are shown below.
Devices: • Trace moisture analyzer: CA-200, manufactured by Mitsubishi Chemical Analytech Co., Ltd. • Water vaporizer: VA-200 • Reagents: AQUAMICRON AX as anolyte and AQUAMICRON CXU as catholyte • Sample heating: 130° C. in an inert gas atmosphere (gas: N2, flow rate: 300 ml/min)

[2] = Solubility of crystals of Reb. D, amount dissolved (FIG. 6); details: 300 mg in pure water (150 ml) at 7.5° C., stirring at 200 rpm, 0.45-um filter
Protocol: The crystals of Reb. D in the crystalline form α and the crystalline form β and a control (commercially available Reb. D in a stable form) were provided, to compare their solubilities. The crystal in the crystalline form α used was obtained by maintaining Reb. D at 50° C. for 1 hour, followed by appropriate N2 purge, and the crystal in the crystalline form β used was obtained by maintaining Reb. D at 100° C. for 1.5 hours, followed by appropriate N2 purge and then overnight cooling at normal temperature. The conditions for dissolution and sample preparation are shown below.
300 mg of Reb. D was added to pure water (150 ml) at 7.5° C., followed by stirring at 200 rpm, for dissolution.
(§1) Sample Preparation Conditions:
A 0.45-um filter was immersed in the solution for 30 seconds, and then a filtrate was obtained through the filter. 1 ml of the filtrate obtained was collected and diluted 10-fold with pure water.

[3] = Improvement in solubility by supplementary addition of crystal to saturated Reb. D solution (FIG. 9)
Protocol: Using the Reb. D in the crystalline form α, tests were conducted to confirm that the solubility of commercially available Reb. D was improved. […] First, commercially available Reb. D (in a stable form) was added to water to a saturated state. 24 hours later, the crystal of Reb. D in the crystalline form α was added to the saturated solution. Sampling was performed 24 hours later, 25 hours later, and 48 hours later, to check the amount of the Reb. D dissolved. […] D in the crystalline form α was added.

[4] = Turbidity (NTU) and amount dissolved 40 minutes after dissolution (FIG. 7); details: 90 mg in 150 ml pure water at 7.5° C., 350 rpm, 40 minutes later, versus control
Protocol: The “turbidity (NTU)” herein means the degree of turbidity when the Reb. D is dissolved in water, and the lower the turbidity means that the Reb. D is dissolved better. The turbidity can be measured by a known method, for example, using an existing absorptiometer.
Then, the solubilities were evaluated under the conditions varied. The crystal in the crystalline form α used was obtained by maintaining at 55° C. for 2 hours, followed by appropriate N2 purge and then natural cooling in vacuo. The dissolution conditions, the conditions of turbidity (NTU) measurement, and the sample preparation conditions are shown below.
90 mg of Reb. D was added to 150 ml of pure water (equivalent to 300 mg/500 ml) at 7.5° C., followed by stirring at 350 rpm for dissolution. The degree of dissolution was checked 40 minutes later.
Conditions of Turbidity (NTU) Measurement:
30 ml was collected 40 minutes later, and the turbidity (NTU) was measured. The turbidity was measured with an absorptiometer (2100AN, manufactured by Hach Company) by turbidimetry using formazin as a standard solution.
as §1
A 0.45-um filter was immersed in the solution for 6 seconds, and then a filtrate was obtained through the filter. 1 ml of the filtrate obtained was collected and diluted 10-fold with pure water.

| moisture content [1] | amount dissolved as compared with the control (Cont) [2] | persistence of the increase in amount dissolved ([3]; 24 hours after the crystal was added to the saturated solution) | amount of Reb. D dissolved after addition of the crystal to a saturated solution of commercially available Reb. D ([3]; crystal added 24 hours after saturation with stable form) | amount dissolved [4] | turbidity (NTU) [4] | Compound |
| --- | --- | --- | --- | --- | --- | --- |
| 0.67 wt % | increased | the increase continued | further increased | tended to increase | tended to be low | C=C1C[C@@]23CC[C@H]4[C@@](C)(CCC[C@@]4(C)C(=O)O[C@@H]4O[C@H](CO)[C@@H](O)[C@H](O)[C@H]4O[C@@H]4O[C@H](CO)[C@@H](O)[C@H](O)[C@H]4O)[C@@H]2CC[C@]1(O[C@@H]1O[C@H](CO)[C@@H](O)[C@H](O[C@@H]2O[C@H](CO)[C@@H](O)[C@H](O)[C@H]2O)[C@H]1O[C@@H]1O[C@H](CO)[C@@H](O)[C@H](O)[C@H]1O)C3 [crystalline form α, rebaudioside D] |
| over 5 wt % |  |  |  |  |  | C=C1C[C@@]23CC[C@H]4[C@@](C)(CCC[C@@]4(C)C(=O)O[C@@H]4O[C@H](CO)[C@@H](O)[C@H](O)[C@H]4O[C@@H]4O[C@H](CO)[C@@H](O)[C@H](O)[C@H]4O)[C@@H]2CC[C@]1(O[C@@H]1O[C@H](CO)[C@@H](O)[C@H](O[C@@H]2O[C@H](CO)[C@@H](O)[C@H](O)[C@H]2O)[C@H]1O[C@@H]1O[C@H](CO)[C@@H](O)[C@H](O)[C@H]1O)C3 [control, rebaudioside D] |
| 0.37 wt % | increased |  |  |  |  | C=C1C[C@@]23CC[C@H]4[C@@](C)(CCC[C@@]4(C)C(=O)O[C@@H]4O[C@H](CO)[C@@H](O)[C@H](O)[C@H]4O[C@@H]4O[C@H](CO)[C@@H](O)[C@H](O)[C@H]4O)[C@@H]2CC[C@]1(O[C@@H]1O[C@H](CO)[C@@H](O)[C@H](O[C@@H]2O[C@H](CO)[C@@H](O)[C@H](O)[C@H]2O)[C@H]1O[C@@H]1O[C@H](CO)[C@@H](O)[C@H](O)[C@H]1O)C3 [crystalline form β, rebaudioside D] |
